In patent US9073855B2, “BCL-2 selective apoptosis-inducing agents for the treatment of cancer and immune diseases” (AbbVie Inc., priority 2008, dated 2015):
pEC50, pKi: −log10 of the molar value.

Assays:
GST-Bcl-2 = GST-Bcl-2 (Homo sapiens, UniProt P10415); test: TR-FRET binding assay, GST-Bcl-2 with F-Bak peptide probe; details: TR-FRET Binding Affinity, GST-Bcl-2, F-Bak peptide probe
In short: (§1)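 Compounds were serially diluted in DMSO from a 50 μM starting solution (2× the starting concentration; 10% DMSO). Plates were incubated for 3 h at room temperature, and TR-FRET was read with 340/35 nm excitation and emission at 520/525 nm (F-Bak) and 495/510 nm (Tb antibody). Ki values were calculated using Wang's competitive-binding equation.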

GST-Bcl-XL = GST-Bcl-XL (Homo sapiens, UniProt Q07817); test: TR-FRET binding assay, GST-Bcl-XL with F-Bak peptide probe; details: TR-FRET Binding Affinity, GST-Bcl-XL, F-Bak peptide probe
Sequence of GST-Bcl-XL (Q07817 whole entry): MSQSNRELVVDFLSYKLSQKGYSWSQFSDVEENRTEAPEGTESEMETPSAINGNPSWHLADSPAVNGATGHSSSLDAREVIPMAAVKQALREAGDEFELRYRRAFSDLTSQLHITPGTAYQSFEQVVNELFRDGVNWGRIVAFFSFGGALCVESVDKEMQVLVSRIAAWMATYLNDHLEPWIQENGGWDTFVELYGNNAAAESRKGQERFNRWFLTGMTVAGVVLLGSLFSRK
In short: as §1

Canine platelets = test: Platelet cell viability assay (platelet-rich plasma, Cell Titer Glo); format: cell-based; details: Canis lupus familiaris, 5 h, isolated canine platelets ex vivo, five hours at 37° C.
Experimental: After the incubation, platelets were equilibrated to room temperature for 20 minutes and then an equal volume of Cell Titer Glo reagent (Promega Corporation) was added. Samples were mixed for two minutes and then allowed to equilibrate for an additional 10 minutes at room temperature. The luminescence generated from the samples was quantitated using an LJL Analyst plate reader.
The effect of compounds on platelet survival can be directly evaluated ex vivo by examining the viability of isolated canine platelets in the presence of various concentrations of compound.

FL5.12/Bcl-2 cells = test: FL5.12/Bcl-2 cell viability assay under IL-3 withdrawal (CellTitre Glo); format: cell-based, murine; details: Mus musculus, IL-3 withdrawn 48 hrs, then 24 hrs with compound
In short: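 IL-3 withdrawal 48 hrs (no WEHI-3B medium), then compound 24 hrs, various concentrations; 37° C, 5% CO2; readout CellTitre Glo. Murine prolymphocytic FL5.12 stably overexpressing Bcl-2.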

Sequence of GST-Bcl-2 (P10415 whole entry): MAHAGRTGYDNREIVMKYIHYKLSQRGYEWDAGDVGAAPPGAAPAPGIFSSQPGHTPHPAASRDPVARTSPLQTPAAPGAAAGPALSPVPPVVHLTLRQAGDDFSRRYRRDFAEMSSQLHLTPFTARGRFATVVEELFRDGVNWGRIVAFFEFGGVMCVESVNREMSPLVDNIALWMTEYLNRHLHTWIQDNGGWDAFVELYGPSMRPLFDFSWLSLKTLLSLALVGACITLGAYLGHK

SMILES	pKi (GST-Bcl-2)	pKi (GST-Bcl-XL)	pEC50 (Canine platelets)	pEC50 (FL5.12/Bcl-2 cells)
COc1ccc(C2=C(CN3CCN(c4ccc(C(=O)NS(=O)(=O)c5ccc(NCCCN6CCCC6)c([N+](=O)[O-])c5)c(Oc5cccc6[nH]ccc56)c4)CC3)CCC(C)(C)C2)cc1 [Example 68, 2-(1H-indol-4-yloxy)-4-(4-{[2-(4-methoxyphenyl)-4,4-dimethylcyclohex-1-en-1-yl]methyl}piperazin-1-yl)-N-({3-nitro-4-[(3-pyrrolidin-1-ylpropyl)amino]phenyl}sulfonyl)benzamide]	8.91	7.85	< 4.30	7.36
O=C(NS(=O)(=O)c1ccc(NCCCN2CCCC2)c([N+](=O)[O-])c1)c1ccc(N2CCN(CC3=C(c4ccc(Cl)cc4)CCCCC3)CC2)cc1Oc1cccc2[nH]ccc12 [Example 141, 4-(4-{[2-(4-chlorophenyl)cyclohept-1-en-1-yl]methyl}piperazin-1-yl)-2-(1H-indol-4-yloxy)-N-({3-nitro-4-[(3-pyrrolidin-1-ylpropyl)amino]phenyl}sulfonyl)benzamide]	9.17	7.54	< 4.30	7.12
CC1(C)CCC(CN2CCN(c3ccc(C(=O)NS(=O)(=O)c4ccc(NCCCN5CCCC5)c([N+](=O)[O-])c4)c(Oc4cccc5[nH]ccc45)c3)CC2)=C(c2ccc(Cl)cc2)C1 [Example 102, 4-(4-{[2-(4-chlorophenyl)-4,4-dimethylcyclohex-1-en-1-yl]methyl}piperazin-1-yl)-2-(1H-indol-4-yloxy)-N-({3-nitro-4-[(3-pyrrolidin-1-ylpropyl)amino]phenyl}sulfonyl)benzamide]	10.46	8.65	4.69	7.70
CN(C)CCOc1ccc(-c2ccc(Cl)cc2)c(CN2CCN(c3ccc(C(=O)NS(=O)(=O)c4ccc(NCCCN5CCCC5)c([N+](=O)[O-])c4)c(Oc4ccccc4)c3)CC2)c1 [Example 121, 4-[4-({4′-chloro-4-[2-(dimethylamino)ethoxy]-1,1′-biphenyl-2-yl}methyl)piperazin-1-yl]-N-({3-nitro-4-[(3-pyrrolidin-1-ylpropyl)amino]phenyl}sulfonyl)-2-phenoxybenzamide]	12.00	9.41	6.51	7.42
CN(C)CCCNc1ccc(S(=O)(=O)NC(=O)c2ccc(N3CCN(CC4=C(c5ccc(Cl)cc5)CCC(C)(C)C4)CC3)cc2Oc2cccc3[nH]ccc23)cc1[N+](=O)[O-] [Example 56, 4-(4-{[2-(4-chlorophenyl)-5,5-dimethylcyclohex-1-en-1-yl]methyl}piperazin-1-yl)-N-[(4-{[3-(dimethylamino)propyl]amino}-3-nitrophenyl)sulfonyl]-2-(1H-indol-4-yloxy)benzamide]	9.57	7.89	4.57	7.31
CN(C)CCOc1ccc(-c2ccc(Cl)cc2)c(CN2CCN(c3ccc(C(=O)NS(=O)(=O)c4ccc(NCC5CCOCC5)c(S(=O)(=O)C(F)(F)F)c4)c(Oc4ccccc4)c3)CC2)c1 [Example 120, 4-[4-({4′-chloro-4-[2-(dimethylamino)ethoxy]-1,1′-biphenyl-2-yl}methyl)piperazin-1-yl]-2-phenoxy-N-({4-[(tetrahydro-2H-pyran-4-ylmethyl)amino]-3-[(trifluoromethyl)sulfonyl]phenyl}sulfonyl)benzamide]	9.35	7.00	< 4.30	6.50
CN1CCN(CCCNc2ccc(S(=O)(=O)NC(=O)c3ccc(N4CCN(CC5=C(c6ccc(Cl)cc6)CC(C)(C)CC5)CC4)cc3Oc3cccc4[nH]ccc34)cc2[N+](=O)[O-])CC1 [Example 99, 4-(4-{[2-(4-chlorophenyl)-4,4-dimethylcyclohex-1-en-1-yl]methyl}piperazin-1-yl)-2-(1H-indol-4-yloxy)-N-[(4-{[3-(4-methylpiperazin-1-yl)propyl]amino}-3-nitrophenyl)sulfonyl]benzamide]	10.40	8.26	4.66	8.05
CN1CCC(Nc2ccc(S(=O)(=O)NC(=O)c3ccc(N4CCN(Cc5ccccc5-c5ccc(Cl)cc5)CC4)cc3Oc3ccccc3)cc2[N+](=O)[O-])CC1 [Example 89, 4-{4-[(4′-chloro-1,1′-biphenyl-2-yl)methyl]piperazin-1-yl}-N-({4-[(1-methylpiperidin-4-yl)amino]-3-nitrophenyl}sulfonyl)-2-phenoxybenzamide]	9.89	8.13	4.50	7.19
CN1CCC(Nc2ccc(S(=O)(=O)NC(=O)c3ccc(N4CCN(CC5=C(c6ccc(Cl)cc6)CC(C)(C)CC5)CC4)cc3Oc3ccc4[nH]ncc4c3)cc2[N+](=O)[O-])CC1 [Example 21, 4-(4-{[2-(4-chlorophenyl)-4,4-dimethylcyclohex-1-en-1-yl]methyl}piperazin-1-yl)-2-(1H-indazol-5-yloxy)-N-({4-[(1-methylpiperidin-4-yl)amino]-3-nitrophenyl}sulfonyl)benzamide]	8.27	6.72	< 4.30	6.00
O=C(NS(=O)(=O)c1ccc(NCC2CCOCC2)c([N+](=O)[O-])c1)c1ccc(N2CCN(Cc3cc(OCCN4CCCC4)ccc3-c3ccc(Cl)cc3)CC2)cc1Oc1ccccc1 [Example 138, 4-(4-{[4′-chloro-4-(2-pyrrolidin-1-ylethoxy)-1,1′-biphenyl-2-yl]methyl}piperazin-1-yl)-N-({3-nitro-4-[(tetrahydro-2H-pyran-4-ylmethyl)amino]phenyl}sulfonyl)-2-phenoxybenzamide]	11.05	8.29	4.75	7.54
CN1CCN(CCCNc2ccc(S(=O)(=O)NC(=O)c3ccc(N4CCN(Cc5ccccc5-c5ccc(Cl)cc5)CC4)cc3Oc3ccccc3)cc2[N+](=O)[O-])CC1 [Example 86, 4-{4-[(4′-chloro-1,1′-biphenyl-2-yl)methyl]piperazin-1-yl}-N-[(4-{[3-(4-methylpiperazin-1-yl)propyl]amino}-3-nitrophenyl)sulfonyl]-2-phenoxybenzamide]	9.67	7.98	4.44	7.13
CN1CCC(Nc2ccc(S(=O)(=O)NC(=O)c3ccc(N4CCN(CC5=C(c6ccc(Cl)cc6)CC(C)(C)CC5)CC4)cc3Oc3ccccc3)cc2[N+](=O)[O-])CC1 [Example 152, 4-(4-{[2-(4-chlorophenyl)-4,4-dimethylcyclohex-1-en-1-yl]methyl}piperazin-1-yl)-N-({4-[(1-methylpiperidin-4-yl)amino]-3-nitrophenyl}sulfonyl)-2-phenoxybenzamide]	10.59	9.39	5.58	8.05
O=C(NS(=O)(=O)c1ccc(NCCCN2CCCC2)c([N+](=O)[O-])c1)c1ccc(N2CCN(CC3=C(c4ccc(Cl)cc4)CCCCCC3)CC2)cc1Oc1cccc2[nH]ccc12 [Example 142, 4-(4-{[2-(4-chlorophenyl)cyclooct-1-en-1-yl]methyl}piperazin-1-yl)-2-(1H-indol-4-yloxy)-N-({3-nitro-4-[(3-pyrrolidin-1-ylpropyl)amino]phenyl}sulfonyl)benzamide]	8.44	6.99	< 4.30	6.57
CC1(C)CCC(CN2CCN(c3ccc(C(=O)NS(=O)(=O)c4ccc(NCCCN5CCCC5)c([N+](=O)[O-])c4)c(Oc4cccc5[nH]ccc45)c3)CC2)=C(c2ccc(C(F)(F)F)cc2)C1 [Example 69, 4-[4-({4,4-dimethyl-2-[4-(trifluoromethyl)phenyl]cyclohex-1-en-1-yl}methyl)piperazin-1-yl]-2-(1H-indol-4-yloxy)-N-({3-nitro-4-[(3-pyrrolidin-1-ylpropyl)amino]phenyl}sulfonyl)benzamide]	8.90	7.04	< 4.30	7.12
CN(C)CCCNc1ccc(S(=O)(=O)NC(=O)c2ccc(N3CCN(CC4=C(c5ccc(Cl)cc5)CC(C)(C)CC4)CC3)cc2Oc2ccc3[nH]ccc3c2)cc1C(F)(F)F [Example 171, 4-(4-{[2-(4-chlorophenyl)-4,4-dimethylcyclohex-1-en-1-yl]methyl}piperazin-1-yl)-N-{[4-{[3-(dimethylamino)propyl]amino}-3-(trifluoromethyl)phenyl]sulfonyl}-2-(1H-indol-5-yloxy)benzamide]	8.53	7.28	< 4.30	6.56
CC1(C)CCC(CN2CCN(c3ccc(C(=O)NS(=O)(=O)c4ccc(NCCCN5CCCC5)c([N+](=O)[O-])c4)c(Oc4cccc5[nH]ccc45)c3)CC2)=C(c2cccc(F)c2)C1 [Example 72, 4-(4-{[2-(3-fluorophenyl)-4,4-dimethylcyclohex-1-en-1-yl]methyl}piperazin-1-yl)-2-(1H-indol-4-yloxy)-N-({3-nitro-4-[(3-pyrrolidin-1-ylpropyl)amino]phenyl}sulfonyl)benzamide]	8.52	7.28	< 4.30	6.81
